The values below come from patent US9546153B2, “Bicyclic heterocycle substituted pyridyl compounds useful as kinase modulators” (BRISTOL-MYERS SQUIBB COMPANY, priority 2012, dated 2017).

For one test, the target named is IRAK4 (Homo sapiens (Human), UniProt Q9NWZ3). The test can be described thus: IRAK4 Inhibition Assay. The format is biochemical. To be noted: ATP 500 μM; IRAK4 0.6 nM; 60 min at room temperature. On the procedure: The assays were performed in U-bottom 384-well plates. […] The reaction was initiated by the combination of IRAK4 with substrates and test compounds. The reaction was incubated at room temperature for 60 min. and terminated by adding 45 μL of 35 mM EDTA to each sample. The reaction mixture was analyzed on the Caliper LABCHIP® 3000 (Caliper, Hopkinton, Mass.) by electrophoretic separation of the fluorescent substrate and phosphorylated product.
IRAK4, sequence (Q9NWZ3 whole entry, species assumed): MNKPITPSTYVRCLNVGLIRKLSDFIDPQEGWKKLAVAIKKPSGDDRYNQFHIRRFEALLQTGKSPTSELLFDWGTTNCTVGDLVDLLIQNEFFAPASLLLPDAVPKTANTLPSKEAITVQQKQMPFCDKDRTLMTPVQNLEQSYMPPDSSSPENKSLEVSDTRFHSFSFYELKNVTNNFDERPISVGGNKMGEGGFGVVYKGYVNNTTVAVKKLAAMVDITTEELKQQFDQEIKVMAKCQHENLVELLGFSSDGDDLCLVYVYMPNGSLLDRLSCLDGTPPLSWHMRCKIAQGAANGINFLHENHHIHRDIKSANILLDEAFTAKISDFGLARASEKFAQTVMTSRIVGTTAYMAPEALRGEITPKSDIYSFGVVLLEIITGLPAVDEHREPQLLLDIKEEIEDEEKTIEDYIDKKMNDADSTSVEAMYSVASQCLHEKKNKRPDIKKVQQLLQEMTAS

For test [1], the system named is TLR2 induced IL-6 in peripheral blood mononuclear cells (PBMCs). The test is described as follows: PBMC TLR2 Induced IL-6 Assay. To be noted: human PBMCs, 10 μg/ml lipoteichoic acid for 5 hours, IL-6 by ELISA; for IC50: value without asterisk, read-out: Cell IC50; for EC50: EC50 determinations are indicated with an asterisk, read-out: Cell EC50 (asterisk). The class given is cell-based, human. On the procedure:
Peripheral blood mononuclear cells (PBMCs) were isolated from human blood containing the anti-coagulant EDTA (2.5 mM) by centrifugation over a FICOLL® gradient. PBMCs (250000 cells/well) were cultured in assay media (RPMI with 10% heat inactivated FCS) with compounds for 30 minutes at 37° C. in a 5% CO2 incubator. Following pretreatment with compounds, cells were stimulated for 5 hours with 10 μg/ml lipoteichoic acid (Invivogen, San Diego, Calif.), a TLR2 agonist. At the end of the culture, plates were centrifuged at 1800 rpm for 10 minutes to pellet the cells. Supernatants were harvested and analyzed for IL-6 levels by ELISA (BD Biosciences, San Jose, Calif.). Inhibition was calculated as either an IC50 or EC50. EC50 determinations are indicated with an asterisk.

Like-named read-outs stand apart in the source and are kept apart here.

As for `CCNc1cc(Nc2ccc3ncnc(OC)c3c2)ncc1C(=O)NC[C@@H](F)C(C)(C)O` [Example 125], the IC50 came to 13.4 nM at IRAK4 and 779 nM in test [1] (Homo sapiens, PBMC, 5 h).

As to `CC(C)(O)[C@H](F)CNC(=O)c1cnc(Nc2cc3scnc3cc2F)cc1NC1CCOCC1` [Example 520], the IC50 amounted to 2.5 nM at IRAK4 and 1060 nM in test [1] (Homo sapiens, PBMC, 5 h).

As to `CC(C)Nc1cc(Nc2ccc3ncsc3c2)ncc1C(=O)N[C@H]1CC[C@H]([N+](=O)[O-])CC1` [Example 523, 6-(benzo[d]thiazol-6-ylamino)-4-(isopropylamino)-N-((trans)-4-nitrocyclohexyl)nicotinamide], the IC50 on IRAK4 came out at 5.4 nM. Moreover, the EC50 in test [1] (Homo sapiens, PBMC, 5 h) worked out at 365 nM.

In the case of `CC(C)(O)[C@H](F)CNC(=O)c1cnc(Nc2ccc3ncsc3c2)cc1N[C@H]1CCCC(O)C1` (stereo partly drawn) [Example 327, 6-(benzo[d]thiazol-6-ylamino)-N—((R)-2-fluoro-3-hydroxy-3-methylbutyl)-4-(3-hydroxycyclohexylamino)nicotinamide], the IC50 on IRAK4 amounted to 9.7 nM; in test [1] it was 1000 nM.

`CC(C)(O)[C@H](F)CNC(=O)c1cnc(Nc2nc3ccnn3cc2F)cc1NC1CCOCC1` [Example 369]: the IC50 amounted to 8.1 nM on IRAK4 and 859 nM in test [1] (Homo sapiens, PBMC, 5 h).

Consider `CC(C)(O)[C@H](F)CNC(=O)c1cnc(Nc2ccc3ncsc3c2)cc1NCCC1CC1` [Example 129], for which the IC50 at IRAK4 was determined as 2.6 nM; in test [1] (Homo sapiens, PBMC, 5 h), 143 nM.

For the molecule `CCCCNc1cc(Nc2ccc3ncsc3c2)ncc1C(=O)NC[C@@H](F)C(C)(C)O` [Example 160], the half-maximal inhibitory concentration (IC50) at IRAK4 was found to be 4.8 nM; in test [1] (Homo sapiens, PBMC, 5 h) it was 109 nM.

For the molecule `CC(C)(O)[C@H](F)CNC(=O)c1cnc(Nc2ccc3ncccc3c2)cc1NC1CCCC1F` (stereo partly drawn) [Example 351], the IC50 amounted to 5.9 nM on IRAK4 and 227 nM in test [1] (Homo sapiens, PBMC, 5 h).

For the molecule `CC(C)(O)[C@H](F)CNC(=O)c1cnc(Nc2ccc3ncsc3c2)cc1NC1CCCCCC1` [Example 87], the concentration for half-maximal inhibition (IC50) on IRAK4 was determined as 5.3 nM; in test [1] (Homo sapiens, PBMC, 5 h), 271 nM.

On to `CC(C)(O)[C@H](F)CNC(=O)c1cnc(Nc2ccn3nccc3n2)cc1NC12CCC(O)(CC1)C2` [Example 141], for which the IC50 worked out at 2.2 nM on IRAK4 and 279 nM in test [1] (Homo sapiens, PBMC, 5 h).

With `CC(C)(O)[C@H](F)CNC(=O)c1cnc(Nc2nc3ccnn3cc2F)cc1NC1CCC(F)(F)C1` (stereo partly drawn) [Example 392], the IC50 on IRAK4 turned out to be 8 nM; in test [1], 297 nM.

For `CCC(C)Nc1cc(Nc2ccc3ncsc3c2)ncc1C(=O)NC[C@@H](F)C(C)(C)O` (stereo partly drawn) [Example 137], the IC50 on IRAK4 was determined as 3.6 nM; in test [1] (Homo sapiens, PBMC, 5 h), 528 nM.

Turning to `CC(C)(O)[C@H](F)CNC(=O)c1cnc(Nc2ccn3nccc3n2)cc1NC1CCSCC1` [Example 385], the IC50 on IRAK4 turned out to be 4.3 nM; in test [1] (Homo sapiens, PBMC, 5 h), 135 nM.

As for `CC(C)(O)[C@H](F)CNC(=O)c1cnc(Nc2nc3ccnn3cc2F)cc1NC1CCOCC1F` (stereo partly drawn) [Example 436], the IC50 stood at 4.9 nM on IRAK4 and 346 nM in test [1] (Homo sapiens, PBMC, 5 h).

For `CC(C)(F)CNc1cc(Nc2ccn3ncc(Cl)c3n2)ncc1C(=O)NC[C@@H](F)C(C)(C)O` [Example 264], the IC50 on IRAK4 worked out at 4.6 nM; in test [1] (Homo sapiens, PBMC, 5 h) it was 384 nM.

Turning to `CC(C)(O)[C@H](F)CNC(=O)c1cnc(Nc2ccn3nccc3n2)cc1NC1CCC(F)C1` (stereo partly drawn) [Example 248], the results for the IC50 (on IRAK4; in test [1]) were 3.1 nM and 176 nM, respectively.

On to `C[C@@H](CO)Nc1cc(Nc2nc3scnc3cc2F)ncc1C(=O)N[C@H]1CC[C@H](O)CC1` [Example 484], for which the IC50 on IRAK4 was 8.7 nM; in test [1] (Homo sapiens, PBMC, 5 h) it was 1350 nM.

With `CC(=O)NCCCCNC(=O)c1cnc(Nc2ccc3ncsc3c2)cc1NC(C)C` [Example 209], the IC50 at IRAK4 was 5.3 nM; in test [1] (Homo sapiens, PBMC, 5 h), 875 nM.

With `CC(C)Nc1cc(Nc2ccc3ncsc3c2)ncc1C(=O)NC1CCCC(CO)C1` (stereo not drawn) [Example 173], the IC50 on IRAK4 amounted to 9.3 nM; in test [1], 696 nM.

For the molecule `CC(C)(O)[C@H](F)CNC(=O)c1cnc(Nc2ccc3nccnc3n2)cc1NC1CC1` [Example 97], the IC50 on IRAK4 amounted to 16.4 nM; in test [1] (Homo sapiens, PBMC, 5 h), 302 nM.

Turning to `CC(C)Nc1cc(Nc2ccc3ncsc3c2)ncc1C(=O)NCCN1CCOCC1` [Example 402], the IC50 on IRAK4 was determined as 9 nM; in test [1] (Homo sapiens, PBMC, 5 h), 357 nM.

With `CC(C)(F)CNc1cc(Nc2ccn3ncc(F)c3c2)ncc1C(=O)NC[C@@H](F)C(C)(C)O` [Example 301], the IC50 on IRAK4 was 3.1 nM; in test [1] (Homo sapiens, PBMC, 5 h) it was 190 nM.

Turning to `CC(C)(O)[C@H](F)CNC(=O)c1cnc(Nc2ccn3nccc3c2)cc1NC1CCC(F)(F)C1` (stereo partly drawn) [Example 299], the IC50 on IRAK4 was found to be 1.7 nM; in test [1], 420 nM.

As for `CC(C)(O)[C@H](F)CNC(=O)c1cnc(Nc2ccc3ncc(C#N)cc3n2)cc1NC1CCCOC1` (stereo partly drawn) [Example 442], the IC50 on IRAK4 was 5.6 nM; in test [1] (Homo sapiens, PBMC, 5 h), 106 nM.

Regarding `CC(C)(O)[C@H](F)CNC(=O)c1cnc(Nc2ccc3ncsc3c2)cc1NCC(F)(F)C(C)(C)O` [Example 107], the IC50 on IRAK4 came out at 3.9 nM; in test [1] (Homo sapiens, PBMC, 5 h) it was 174 nM.

For `CC(C)(O)[C@H](F)CNC(=O)c1cnc(Nc2ccc3ncsc3c2)cc1NC1C2CCCC1CCC2` (stereo partly drawn) [Example 419], the IC50 amounted to 5.1 nM on IRAK4 and 184 nM in test [1] (Homo sapiens, PBMC, 5 h).

As to `CC(C)(O)[C@H](F)CNC(=O)c1cnc(Nc2ccc3ncsc3c2)cc1Nc1ccc(C(=O)NCC(F)(F)F)cc1` [Example 324], the IC50 on IRAK4 turned out to be 10.7 nM; in test [1] (Homo sapiens, PBMC, 5 h) it was 190 nM.

As for `CC(C)(O)[C@H](F)CNC(=O)c1cnc(Nc2ccc3nccn3n2)cc1NC1CCOCC1F` (stereo partly drawn) [Example 285], the IC50 worked out at 7.1 nM at IRAK4 and 512 nM in test [1] (Homo sapiens, PBMC, 5 h).

On to `CC(=O)N[C@H]1CC[C@H](NC(=O)c2cnc(Nc3nc4ccnn4cc3F)cc2NC(C)C)CC1` [Example 512], for which the IC50 worked out at 17.4 nM on IRAK4 and 602 nM in test [1] (Homo sapiens, PBMC, 5 h).

On to `CNC(=O)[C@H]1CC[C@H](NC(=O)c2cnc(Nc3cnc4[nH]ccc4c3)cc2NC(C)C)CC1` [Example 507], for which the IC50 is 12 nM on IRAK4 and 523 nM in test [1] (Homo sapiens, PBMC, 5 h).

Turning to `CC(C)Nc1cc(Nc2cc3ccnn3cc2F)ncc1C(=O)NC[C@@H](F)C(C)(C)O` [Example 477], the IC50 came out at 10 nM on IRAK4 and 717 nM in test [1] (Homo sapiens, PBMC, 5 h).

For the molecule `CC(=O)NCCCNC(=O)c1cnc(Nc2ccc3ncsc3c2)cc1NC(C)C` [Example 199], the IC50 worked out at 8.4 nM at IRAK4 and 551 nM in test [1] (Homo sapiens, PBMC, 5 h).

With `CC(=O)N[C@H]1CC[C@H](NC(=O)c2cnc(Nc3ccc4ncsc4c3)cc2N[C@H]2CCOC[C@@H]2F)CC1` [Example 511], the IC50 was determined as 4.2 nM at IRAK4 and 611 nM in test [1] (Homo sapiens, PBMC, 5 h).

Regarding `CC(C)(O)[C@H](F)CNC(=O)c1cnc(Nc2ccc3nccn3n2)cc1NC1CC1` [Example 85], the IC50 on IRAK4 stood at 5.1 nM; in test [1] (Homo sapiens, PBMC, 5 h), 195 nM.

On to `CC(C)(O)[C@H](F)CNC(=O)c1cnc(Nc2ccc3ncsc3c2)cc1NC1CCOCC1` [Example 52], for which the IC50 worked out at 2.7 nM on IRAK4 and 116 nM in test [1] (Homo sapiens, PBMC, 5 h).

As for `CC(C)(O)[C@H](F)CNC(=O)c1cnc(Nc2ccc3ncsc3c2)cc1NC1CCCC1(F)F` (stereo partly drawn) [Example 358], the IC50 is 2.4 nM on IRAK4 and 48 nM in test [1] (Homo sapiens, PBMC, 5 h).

Regarding `CC(C)Nc1cc(Nc2ccc3nsnc3c2)ncc1C(=O)NC[C@@H](F)C(C)(C)O` [Example 41], the IC50 on IRAK4 was 3.5 nM; in test [1] (Homo sapiens, PBMC, 5 h), 318 nM.

Consider `CNC(=O)c1cnc(Nc2nc3ccc(Cl)nc3s2)cc1NC(C)C` [Example 4, 6-(5-chlorothiazolo[5,4-b]pyridin-2-ylamino)-4-(isopropylamino)-N-methylnicotinamide], for which the IC50 worked out at 18.2 nM at IRAK4 and 639 nM in test [1] (Homo sapiens, PBMC, 5 h).

Turning to `CC(C)Nc1cc(Nc2ccn3ncc(F)c3n2)ncc1C(=O)NC[C@@H](F)C(C)(C)O` [Example 244], the IC50 on IRAK4 was found to be 1.9 nM; in test [1] (Homo sapiens, PBMC, 5 h) it was 156 nM.

As to `CC(C)(O)CCNC(=O)c1cnc(Nc2ccc3ncsc3c2)cc1NC1CC1` [Example 9], the IC50 came out at 10 nM on IRAK4 and 289 nM in test [1] (Homo sapiens, PBMC, 5 h).

On to `CC(C)(C)Nc1cc(Nc2ccc3ncsc3c2)ncc1C(=O)NC[C@@H](F)C(C)(C)O` [Example 83], for which the IC50 on IRAK4 worked out at 11.5 nM; in test [1] (Homo sapiens, PBMC, 5 h), 133 nM.

`CC(C)(O)[C@H](F)CNC(=O)c1cnc(Nc2nc3ccnn3cc2F)cc1NC1CCCCC1(F)F` (stereo partly drawn) [Example 497]: the IC50 at IRAK4 was 15.2 nM. Further, the EC50 in test [1] stood at 299 nM.

`CC(C)(O)[C@H](F)CNC(=O)c1cnc(Nc2ccc3ncsc3c2)cc1Nc1cccc(CO)c1` [Example 57]: the IC50 at IRAK4 amounted to 5.2 nM; in test [1] (Homo sapiens, PBMC, 5 h), 314 nM.

For the molecule `CC(C)(O)[C@H](F)CNC(=O)c1cnc(Nc2ccn3nccc3n2)cc1NC1CC1` [Example 236], the IC50 worked out at 4.7 nM at IRAK4 and 346 nM in test [1] (Homo sapiens, PBMC, 5 h).

Turning to `CC(C)Nc1cc(Nc2ccc3ncsc3c2)ncc1C(=O)N[C@H]1CC[C@H](C(=O)NC2CC2)CC1` [Example 227], the IC50 at IRAK4 worked out at 2.7 nM; in test [1] (Homo sapiens, PBMC, 5 h), 138 nM.

For orientation: IC50 means the concentration needed to halve the response being measured. The EC50 is the concentration needed to bring the measured effect to its halfway point.
